pIC50: −log10 of the molar value.

For assay [1], the system named is gastric acid secretion. The experiment in a line: Inhibition of Gastric Acid Secretion in Gastric Fistula Beagle Dogs. The following applies: 3 mg/kg dose, i.v.; histamine-stimulated, four-hour period. It counts as in vivo. From the text:
Inhibition of Gastric Acid Secretion in Gastric Fistula Beagle Dogs
Adult female beagle dogs weighing 6 to 11 kilograms obtained from Laboratory Research Enterprises (Kalamazoo, Mich.) or from Hazelton Research Animals (Cumberland, Va.) were surgically implanted with a simple Thomas-type gastric cannula. After recovery from surgery, the dogs were trained to stand quietly, fully conscious, in Pavlov-type dog restraining slings and were acclimated to intravenous infusion of histamine dihydrochloride. During the course of these studies, no dog was used more than once a week. All dogs were deprived of food, but not water, for 18 hours prior to each assay. […] The volume of gastric secretions, collected in plastic bottles affixed to the cannula, were measured to the nearest 0.1 ml at 30 minute intervals. […]
Intravenous dosing: Following a 30-minute basal secretion period, test compounds were administered intravenously (i.v.). […] The pH and titratable acidity were determined for samples from each collection period. […]
Data from each protocol were analyzed for three gastric sample variables: volume of gastric juice, acid concentration, and total acid output. Percent inhibition for each four-hour experimental period was determined for each parameter by comparison with 3 to 4 controls in which only food was given. Estimates of ED50 's were determined from dose response curves.

Assay [2] has as its target T1, (H^+ +K^+)-ATPase (Canis lupus familiaris, UniProt P50996).
T1 construct: from tissue; host or cells: microsomes from glandular gastric mucosa (antral and cardiac regions removed) of mongrel dogs, lyophilized
The experiment in a line: Inhibition of (H^+ +K^+)-ATPase from Canine Gastric Mucosa. The settings on record: canine gastric mucosa microsomes, pH 6.0, 30 min preincubation with compound at 37°. It counts as biochemical, canine (mongrel dogs).
Procedure: Mongrel dogs weighing 15 to 25 kilograms were fasted for twenty-four hours, with water provided ad libitum. The animals were anesthetized with pentobarbital and the stomachs were removed. Subsequent tissue manipulations and subcellular fractionations were performed at 0° to 4° C. After the stomachs were cut open and rinsed with tap water, the antral and cardiac regions were removed and the remaining tissue was rinsed three times in saline. The glandular mucosa was removed mechanically, chopped finely in a medium containing 10 mM Tris hydrochloride (pH 7.4) and 250 mM sucrose, and homogenized. The homogenate was centrifuged at 20,000xg for twenty minutes and the pellet discarded. The supernatant was then centrifuged at 150,000xg for ninety minutes and the supernatant discarded. […]
(H^+ +K^+)-ATPase activity for each test compound was determined, in duplicate, by measuring the release of inorganic phosphate, which was assayed according to the method of J. ChandraRajan and L. Klein. […] At least fifteen minutes later, the optical absorbance at 870 nm (which was proportional to inorganic phosphate concentration up to 100 nmoles per tube, as determined by a standard curve) was obtained. […]
(H^+ +K^+)-ATPase activity is represented by the difference between the measured activities in the presence of potassium ion (K^+ -stimulated) and in the absence of potassium ion (basal).

T1 sequence (P50996 whole entry): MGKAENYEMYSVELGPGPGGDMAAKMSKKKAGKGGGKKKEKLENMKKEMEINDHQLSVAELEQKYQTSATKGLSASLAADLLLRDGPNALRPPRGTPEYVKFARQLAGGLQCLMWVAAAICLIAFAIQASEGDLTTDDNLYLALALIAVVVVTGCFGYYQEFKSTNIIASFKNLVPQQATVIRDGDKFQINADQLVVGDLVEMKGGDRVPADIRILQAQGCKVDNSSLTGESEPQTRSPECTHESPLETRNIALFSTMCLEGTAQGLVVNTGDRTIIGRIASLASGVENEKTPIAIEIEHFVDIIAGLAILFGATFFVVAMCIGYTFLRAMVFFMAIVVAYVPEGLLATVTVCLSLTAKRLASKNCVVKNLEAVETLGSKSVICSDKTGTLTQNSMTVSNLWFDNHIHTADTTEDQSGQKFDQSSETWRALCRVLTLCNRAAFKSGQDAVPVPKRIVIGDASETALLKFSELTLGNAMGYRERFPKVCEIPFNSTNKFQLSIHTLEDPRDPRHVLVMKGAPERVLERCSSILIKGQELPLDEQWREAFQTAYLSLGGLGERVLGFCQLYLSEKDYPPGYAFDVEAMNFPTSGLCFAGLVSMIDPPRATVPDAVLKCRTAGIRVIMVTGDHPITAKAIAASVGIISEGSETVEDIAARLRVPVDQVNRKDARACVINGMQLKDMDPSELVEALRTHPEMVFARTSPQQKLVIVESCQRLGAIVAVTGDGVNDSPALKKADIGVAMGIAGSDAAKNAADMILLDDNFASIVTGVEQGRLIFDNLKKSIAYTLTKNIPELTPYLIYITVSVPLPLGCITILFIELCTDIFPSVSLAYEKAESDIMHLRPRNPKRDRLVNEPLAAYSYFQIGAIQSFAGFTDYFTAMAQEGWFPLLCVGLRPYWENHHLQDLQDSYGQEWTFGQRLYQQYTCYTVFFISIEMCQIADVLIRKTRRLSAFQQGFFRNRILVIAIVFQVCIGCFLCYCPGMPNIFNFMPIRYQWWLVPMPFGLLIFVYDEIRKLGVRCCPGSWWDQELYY
T1 sequence (P33704 whole entry partner): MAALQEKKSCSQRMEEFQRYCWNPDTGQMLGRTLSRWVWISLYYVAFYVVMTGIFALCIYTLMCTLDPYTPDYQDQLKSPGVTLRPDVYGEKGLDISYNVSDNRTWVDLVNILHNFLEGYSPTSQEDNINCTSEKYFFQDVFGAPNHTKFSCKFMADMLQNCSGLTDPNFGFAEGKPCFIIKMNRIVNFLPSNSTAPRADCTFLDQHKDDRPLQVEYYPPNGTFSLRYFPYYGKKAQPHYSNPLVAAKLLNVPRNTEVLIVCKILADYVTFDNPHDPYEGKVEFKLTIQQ

For orientation: pIC50 means −log10 of the IC50, conventionally taken in molar units. As for `Nc1ncccc1C[S+]([O-])c1nc2ccccc2[nH]1.O` (centres unmarked) [Example 3, 3-[(1H-benzimidazol-2-ylsulfinyl)methyl]-2-pyridinamine hydrate], in assay [1], the “Gastric-Fistula Beagle % Inhibition” value turned out to be 41%. Moreover, the pIC50 in assay [2] was 4.00.

Values taken from patent US4772619A, “[(1H-benzimidazol-2-ylsulfinyl)methyl]-2-pyridinamines” (G. D. Searle & Co., priority 1986, dated 1988).
